We go through five molecules from ChEMBL document CHEMBL1201862, “PubChem BioAssay data set” (2004).

Some test systems named below: NCI-H226; HCC 2998; 786-0; IGROV-1; OVCAR-5; SNB-19; MOLT-4; SK-OV-3; KM-20L2; M14; SNB-75; HCT-15; M19-MEL; UACC-257; UO-31; SK-MEL-2; T47D; Hs-578T; PC-3; MCF7.
Common to all, as to assay: NCI tumour cell line growth inhibition, 48 h

Molecules are shown by their SMILES. “And” between values parts separate entries of the source, which are not always exact repeats. Equal entries are not always repeated.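 All cell lines were grown in 96-well plates and treated with compound for 48 hours. Here, GI50 denotes the concentration required for 50% inhibition of growth.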 The source made the active and inactive calls. No stated cut-off is given here; in the data, active = GI50 up to about 1.1 µM and inactive = higher.

Regarding `CC(C)=CCSC1CC2C(CC1(C)O)C2(C)C` (stereo not drawn), the GI50 with NCI-H226 was 13.7 µM (inactive) and 14.4 µM (inactive); with HCC 2998, 1.83 µM (inactive) and 2.82 µM (inactive); in the experiment with 786-0 it was 15.9 µM (inactive) and 13.1 µM (inactive); in the experiment on IGROV-1, 19 µM (inactive) and 16.9 µM (inactive); with OVCAR-5 it was 14.9 µM (inactive) and 16.5 µM (inactive); in the experiment with SNB-19, 17.2 µM (inactive) and 19.3 µM (inactive). The GI50 with MOLT-4 was 13.6 µM (inactive) and 20.9 µM (inactive); with SK-OV-3, 15 µM (inactive) and 16.2 µM (inactive); in the experiment with KM-20L2, 15.7 µM (inactive) and 19.1 µM (inactive); in the experiment with M14, 17.7 µM (inactive) and 14.7 µM (inactive); with SNB-75 it was 15.8 µM (inactive) and 11.5 µM (inactive); in the experiment on HCT-15, 17.3 µM and 16.1 µM.

Regarding `COc1cc(/C=C2\C(=O)N(C(=O)c3ccc(NC(C)=O)cc3)N=C2C)ccc1O`, the GI50 with NCI-H226, in the experiment on HCC 2998, with 786-0, in the experiment with M19-MEL, in the experiment on OVCAR-5 and with SNB-19 was > 100 µM (inactive) in each case. The GI50 in the experiment on MOLT-4, in the experiment with UACC-257, with UO-31, in the experiment on M14 and in the experiment on SNB-75 was > 100 µM (inactive) in each case.

For `Nc1c(-c2ccc(Br)cc2)[n+]([O-])c2ccccc2[n+]1[O-]`, the GI50 in the experiment with NCI-H226 is > 100 µM (inactive); in the experiment with 786-0 it was > 100 µM (inactive); in the experiment with IGROV-1 it was > 100 µM (inactive); in the experiment with OVCAR-5, > 100 µM (inactive); in the experiment with SNB-19, > 100 µM (inactive); in the experiment on MOLT-4 it was 39.2 µM (inactive). Besides, the GI50 in the experiment with UACC-257 is > 100 µM (inactive); in the experiment with UO-31, 38.6 µM (inactive); with SK-OV-3, > 100 µM (inactive); in the experiment with KM-20L2, > 100 µM (inactive); in the experiment on M14, > 100 µM (inactive); in the experiment on SNB-75, 81.3 µM (inactive). Also, the GI50 was > 100 µM (inactive) in the experiment with SK-MEL-2 and above 100 µM in the experiment on HCT-15.

As for `CCOP(=O)(OCC)C(Nc1cccc(F)c1)c1ccc(N(C)C)cc1` (stereo not drawn), the GI50 in the experiment on T47D is 34.8 µM (inactive); in the experiment on NCI-H226, > 100 µM (inactive); in the experiment on HCC 2998 it was 64 µM (inactive); in the experiment on 786-0, > 10 µM (inactive); in the experiment with IGROV-1, > 100 µM (inactive); with Hs-578T, > 100 µM (inactive). The GI50 with OVCAR-5 was > 100 µM (inactive); in the experiment on PC-3, 62.1 µM (inactive); with MCF7, > 100 µM (inactive); in the experiment on SNB-19 it was > 100 µM (inactive); in the experiment on MOLT-4, 40.4 µM (inactive); with UACC-257, 76.9 µM (inactive). Also, the GI50 in the experiment on UO-31 is > 100 µM (inactive); with SK-OV-3, > 100 µM (inactive); in the experiment on M14, 74.3 µM (inactive); in the experiment with SNB-75, > 100 µM (inactive); in the experiment on SK-MEL-2, > 100 µM (inactive); with HCT-15, 78.2 µM.

For `COC(=O)c1cc(C(=CCC[C@H]2CC[C@@]3(C)C(CCC4C3CC[C@@]3(C)C4CC[C@@H]3C(C)CCCC(C)C)C2)c2cc(Cl)c(O)c(C(=O)OC)c2)cc(Cl)c1O` (stereo partly drawn), the GI50 in the experiment on T47D, in the experiment on NCI-H226, in the experiment on HCC 2998, in the experiment with 786-0, in the experiment on IGROV-1 and with Hs-578T was > 10 µM (inactive) each time. The GI50 in the experiment with OVCAR-5, in the experiment on PC-3, in the experiment with MCF7, with SNB-19, with MOLT-4 and with UACC-257 was > 10 µM (inactive) each time. The GI50 in the experiment with UO-31 is > 10 µM (inactive); in the experiment on SK-OV-3, > 10 µM (inactive); in the experiment with M14, > 10 µM (inactive); in the experiment with SNB-75, > 10 µM (inactive); in the experiment with SK-MEL-2 it was > 10 µM (inactive); with HCT-15, above 10 µM.
